Data on 6 compounds can be found in patent US6602865B1, “Pyridazino(4,5-b)(1,5)oxazepinone, -thiazepinone and -diazepinone compounds” (IVAX Drug Research Institute, Ltd., priority 1998, dated 2003).

In the first assay the test system is scopolamine-induced memory-deficit in rats. The assay is described as follows: Passive avoidance test, scopolamine-induced memory deficit in rats. Conditions: oral dose 50 mg/kg. Type of assay: in vivo, rat. On the procedure:
The memory-enhancing effect of the compounds according to the invention was measured by counter-balancing the scopolamine-induced memory-deficit in rats, with oral doses of 50 mg/kg, in the passive avoidance test published by Cumin, R. et al. [Psychopharmacology, 78, 104 (1982)].
Regarding `O=c1c2c(cnn1CC=Cc1ccccc1)N(Cc1ccccc1)CCCO2` [Example 7, 5-Benzyl-8-cynnamyl-2,3,4,5-tetrahydro-9(8H)-pyridazino[4,5-b][1,5]oxazepinone], the “Memory improvement compared to amnesic control (%)” value was 250%.

The next assay has as its system AMPA. The assay is described as follows: AMPA-induced spreading depression of chick retina. Conditions: 20 μM. As to the method:
The AMPA antagonistic effect of the compounds was also tested on spreading depression of chick retina (Sheardown, M. J.: Brain Res., 1993, 607, 189) in a concentration of 20 μM.
Turning to `Cn1ncc2c(c1=O)SCCNC2C(=O)c1ccccc1` (stereo not shown) [Example 3, 5-Benzoyl-8-methyl-2,3,4,5-tetrahydro-9(8H)-pyridazino[4,5-b][1,5]thiazepinone], the “Antagonistic effect on AMPA-induced spreading depression (%)” value (shortened to “Antagonistic effect … (%)”) turned out to be 10%.

Turning to `Cn1ncc2c(c1=O)OCCNC2Cc1ccccc1` (stereo not shown) [Example 4, 5-Benzyl-8-methyl-2,3,4,5-tetrahydro-9(8H)-pyridazino[4,5-b][1,5]oxazepinone], the “Antagonistic effect … (%)” value turned out to be 17%. In the case of `O=c1c2c(cnn1CC=Cc1ccccc1)N(Cc1ccccc1)CCCO2` [Example 7, 5-Benzyl-8-cynnamyl-2,3,4,5-tetrahydro-9(8H)-pyridazino[4,5-b][1,5]oxazepinone], the “Antagonistic effect … (%)” value is on record as 16%.

Take `Cn1ncc2c(c1=O)SCCNC2Cc1ccccc1` (stereo not shown) [Example 11, 5-Benzyl-8-methyl-2,3,4,5-tetrahydro-9(8H)-pyridazino[4,5-b][1,5]thiazepinone]: the “Antagonistic effect … (%)” value turned out to be 28%. `Cn1ncc2c(c1=O)SCCNC2Cc1ccc(Cl)cc1` (stereo not shown) [Example 12, 5-(4-Chlorobenzyl)-8-methyl-2,3,4,5-tetrahydro-9(8H)-pyridazino[4,5-b]-[1,5]thiazepinone]: the “Antagonistic effect … (%)” value was found to be 32%. `O=c1c2c(cnn1-c1ccccc1)C(Cc1ccccc1)NCCS2` (stereo not shown) [Example 13, 5-Benzyl-8-phenyl-2,3,4,5-tetrahydro-9(8H)-pyridazino[4,5-b]-[1,5]thiazepinone]: the “Antagonistic effect … (%)” value was 48%.
